In US4205170A, “Propionic acid derivatives” (priority 1976, dated 1980):
Read-outs that look alike come from different tables or passages of the source.

System: edema in the hind paws (carrageenan)
Test: carrageenan-induced hind paw edema, oral administration
Format: in vivo, male Wistar rats
Details: Rattus norvegicus; for inhibition in vivo at 5 mg/kg: 5 mg/kg orally; for inhibition in vivo at 10 mg/kg: 10 mg/kg orally; for inhibition in vivo at 1 mg/kg: 1 mg/kg orally
Experimental: That is, male Wistar rats weighing about 100 g, one group consisting of 5 to 7 animals, were given orally the compounds according to the present invention and then edema was induced in the hind paws by subcutaneous injections of 0.1 ml of 1% carrageenan 1 hour after the administration of the test compounds, and the volumes of the hind paws were measured by a volume differential meter.

[1] = 1 hr, read-out: Inhibition (%) 1 hr
[2] = 2 hr, read-out: Inhibition (%) 2 hr
[3] = 3 hr, read-out: Inhibition (%) 3 hr
[4] = 4 hr, read-out: Inhibition (%) 4 hr
[5] = 5 hr, read-out: Inhibition (%) 5 hr
[6] = 6 hr, read-out: Inhibition (%) 6 hr

Row | SMILES | inhibition in vivo at 5 mg/kg [1] [%] | inhibition in vivo at 5 mg/kg [2] [%] | inhibition in vivo at 5 mg/kg [3] [%] | inhibition in vivo at 5 mg/kg [4] [%] | inhibition in vivo at 5 mg/kg [5] [%] | inhibition in vivo at 5 mg/kg [6] [%] | inhibition in vivo at 10 mg/kg [1] [%] | inhibition in vivo at 10 mg/kg [2] [%] | inhibition in vivo at 10 mg/kg [3] [%] | inhibition in vivo at 10 mg/kg [4] [%] | inhibition in vivo at 10 mg/kg [5] [%] | inhibition in vivo at 10 mg/kg [6] [%] | inhibition in vivo at 1 mg/kg [1] [%] | inhibition in vivo at 1 mg/kg [2] [%] | inhibition in vivo at 1 mg/kg [3] [%] | inhibition in vivo at 1 mg/kg [4] [%] | inhibition in vivo at 1 mg/kg [5] [%] | inhibition in vivo at 1 mg/kg [6] [%]
1 | CC(C(N)=O)c1ccc2c(c1)CCc1cccnc1S2 (centres unmarked) [Compound 23, 2-(5,6-dihydrobenzo[b]pyrido[3,2-f]thiepin-8-yl)-propionamide] | 22.6 | 53.8 | 60.9 | 64.1 | 51.8 | 37.5 |  |  |  |  |  |  |  |  |  |  |  | 
2 | CC(C(=O)O)c1ccc2c(c1)Sc1ncccc1CC2 (centres unmarked) [Compound 24, 2-(5,6-dihydrobenzo[b]pyrido[3,2-f]thiepin-9yl)-propionic acid] |  |  |  |  |  |  | 19.6 | 52.1 | 49.9 | 38.3 | 28.2 | 27.2 |  |  |  |  |  | 
3 | CCOC(=O)C(C)c1ccc2c(c1)Sc1ncccc1CC2 (centres unmarked) [Compound 25, Ethyl 2-(5,6-dihydrobenzo[b]pyrido[3,2-f]thiepin-9-yl)-propionate] |  |  |  |  |  |  | 42.8 | 57.7 | 61 | 52.7 | 33.4 | 29.2 |  |  |  |  |  | 
4 | CC(C(=O)O)c1ccc2c(c1)C(=O)Cc1cccnc1O2 (centres unmarked) [Compound 26, 2-(5,6-dihydro-6-oxobenzo[b]pyrido[3,2-f]oxepin-8-yl)-propionic acid] | 55.7 | 52.6 | 40 | 32.2 | 29.7 | 24 |  |  |  |  |  |  |  |  |  |  |  | 
5 | CC(C(=O)O)c1ccc2c(c1)CCc1cccnc1O2 (centres unmarked) [Compound 27, 2-(5,6-dihydrobenzo[b]pyrido[3,2-f]oxepin-8yl)-propionic acid] | 68 | 83.5 | 79 | 81 | 70.6 | 61.5 |  |  |  |  |  |  |  |  |  |  |  | 
6 | CCOC(=O)C(C)c1ccc2c(c1)CCc1cccnc1O2 (centres unmarked) [Compound 28] | 11.7 | 35.1 | 50.9 | 55.4 | 47.1 | 37.7 |  |  |  |  |  |  |  |  |  |  |  | 
7 | CC(C(N)=O)c1ccc2c(c1)CCc1cccnc1O2 (centres unmarked) [Compound 29, 2-(5,6-dihydrobenzo[b]pyrido[3,2-f]oxepin-8-yl)-propionamide] | 18.1 | 38.3 | 53.5 | 53.8 | 46.2 | 42.9 |  |  |  |  |  |  |  |  |  |  |  | 
8 | CC(C(N)=O)c1ccc2c(c1)CCc1ccccc1S2 (centres unmarked) [Compound 30, 2-(10,11-dihydrodibenzo[b,f]thiepin-2-yl)-propionamide] | 21.4 | 56.4 | 59 | 52.8 | 38.6 | 27.3 |  |  |  |  |  |  |  |  |  |  |  | 
9 | O=C(O)c1ccccc1Nc1cccc(C(F)(F)F)c1 [Flufenamic acid, reference compound] | 6.8 | 25.9 | 26.2 | 25.3 | 16 | 10.6 | -2.9 | 23.9 | 26.8 | 29.5 | 23.8 | 15.4 |  |  |  |  |  | 
10 | COc1ccc2c(c1)c(CC(=O)O)c(C)n2C(=O)c1ccc(Cl)cc1 [Indomethacin, reference compound] | 38.3 | 51.7 | 59.2 | 58.4 | 48.7 | 41 | 64.4 | 59.8 | 52.1 | 63.8 | 54.4 | 50.3 | 21.6 | 39.6 | 29.9 | 36.4 | 28.9 | 28.7
11 | CCCCC1C(=O)N(c2ccccc2)N(c2ccccc2)C1=O [Phenyl butazone, reference compound] |  | 22.7 | 21.1 | 22.2 | 13.1 | 13.6 | 12.4 | 23.7 | 27.4 | 20 | 14.4 | 8.6 |  |  |  |  |  | 
